This note sets out measurements from patent US10426758B2, “Sibiriline derivatives for use for preventing and/or treating disorders associated with cellular necroptosis” (Institut National de la Sante et de la Recherche Medicale …, priority 2015, dated 2019).

One data set relates to L929 cells. Briefly: Anti-necroptotic effect, L929 cells, TNF + zVAD, FACS of propidium iodide-stained nuclei. It counts as cell-based. Here is the method: (§1) L929 cells, L929AsFas cells, Jurkat FADD-deficient cells (Jurkat FADD^−/−), U937 cells are pretreated for 1 h with increased concentrations of Sib (0, 5, 10, 20 μM) and then treated respectively with TNF-α (10 ng/ml)+zVAD (20 μM), FasL (200 ng/ml)+zVAD (20 μM), TNF-α (10 ng/ml), TRAIL (200 ng/ml)+zVAD (30 μM) or TRAIL (200 ng/ml)+zVAD (30 μM)+CHX (1 μg/ml). % of cell death is determined after 24 h and calculated by a FACS analysis of Propidium Iodide-stained nuclei. In each case, the EC50 is determined as well as the % of rescue from cell death.

Data set [1] has as its system murine model of acute hepatitis (concanavalin A-induced hepatitis). Kind of data set: Concanavalin A-induced acute hepatitis in mice. Format: in vivo, C57Bl/6 WT mice. Here is the method: We use a murine model of acute hepatitis (concanavalin A-induced hepatitis) that depends on necroptosis induction (Jouan-Lanhouet et al. Semin. Cell. Dev. Biol. 2014, 35, 2-13). Sib is diluted in 50% PBS/50% DMSO.
C57Bl/6 WT mice were pre-treated or not with 3, 6 or 9 mg/kg Sib or 6.25 mg/kg Nec-1s injected by intraperitoneal route 1 hour before treatment or not with 12 mg/kg Con A for 10 h (intravenous route) (50% PBS/50% DMSO, n=5; 50% PBS/50% DMSO+Con A, n=5; 3 mg/kg Sib+Con A, n=5; 6 mg/kg Sib+Con A, n=5; 9 mg/kg Sib+Con A, n=5; 6.25 mg/kg Nec-1s+Con A, n=5).

A further data set deals with L929AsFas cells. Briefly: Anti-necroptotic effect, L929AsFas cells, FasL + zVAD, FACS of propidium iodide-stained nuclei. It counts as cell-based. On the procedure: as §1
In another data set the test system is U937 cells. Kind of data set: Anti-necroptotic effect, U937 cells, TRAIL + zVAD + CHX, FACS of propidium iodide-stained nuclei. It counts as cell-based. Here is the method:
as §1

For data set [2], the system named is cytochrome P450 CYP1A enzymes in HepG2 cells. Briefly: Ethoxyresorufin O-deethylase (EROD) activity in HepG2 cells. Format: in vitro ADME, human. Conditions: 10 μM, 24 hours. On the procedure:
EROD activity corresponds to the O-deethylation of ethoxyresorufin and is mainly supported by cytochrome P450 CYP1A enzymes in HepG2 cells. Induction of CYP1A is mediated through the binding of xenobiotics to a cytosolic aryl hydrocarbon receptor AhR.
Human liver cancer cell lines HepG2 were treated with 10 μM of Sib, Nec-1 or Nec-1s for 24 hours. After treatment, HepG2 cells were incubated in PBS containing 5 mM ethoxyresorufin and kinetic reading was performed at 37° C. with spectrofluorometer (SpectraMax Gemini SX) over a 15 min period.

Data set [3] addresses T1, Human RIPK1 full length GST-tagged (Homo sapiens, UniProt Q13546).
T1 construct: Human RIPK1 full length GST-tagged; made in house; host or cells: Sf9 insect cells (Bac-to-Bac baculovirus system)
T1 sequence (Q13546 1-671): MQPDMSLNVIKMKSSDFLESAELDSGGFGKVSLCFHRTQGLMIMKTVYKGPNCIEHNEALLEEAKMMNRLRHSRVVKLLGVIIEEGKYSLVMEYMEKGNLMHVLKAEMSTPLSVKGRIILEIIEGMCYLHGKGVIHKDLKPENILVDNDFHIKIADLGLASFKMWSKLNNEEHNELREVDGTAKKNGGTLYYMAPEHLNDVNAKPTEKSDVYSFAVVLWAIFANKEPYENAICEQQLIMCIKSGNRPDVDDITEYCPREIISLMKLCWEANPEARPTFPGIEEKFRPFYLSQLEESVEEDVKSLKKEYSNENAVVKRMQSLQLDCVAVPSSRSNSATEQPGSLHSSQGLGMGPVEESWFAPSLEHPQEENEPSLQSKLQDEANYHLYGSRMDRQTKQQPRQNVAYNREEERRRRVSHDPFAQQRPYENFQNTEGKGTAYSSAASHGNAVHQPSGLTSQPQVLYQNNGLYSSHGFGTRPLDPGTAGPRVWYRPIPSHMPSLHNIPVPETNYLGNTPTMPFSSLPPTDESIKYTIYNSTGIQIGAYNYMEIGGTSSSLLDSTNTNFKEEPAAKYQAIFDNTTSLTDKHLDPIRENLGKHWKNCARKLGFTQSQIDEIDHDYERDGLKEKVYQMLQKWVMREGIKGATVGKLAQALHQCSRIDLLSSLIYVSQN
Kind of data set: RIPK1 autophosphorylation assay. It counts as biochemical. The note with it: radioactively labeled RIPK1, [γ-32P] ATP, 30 minutes at 30° C. On the procedure: Human RIPK1 full length GST-tagged was baculovirally expressed in Sf9 cells according to manufacturer's instructions (Bac-to-Bac expression system, Invitrogen) and purified using gluthation-sepharose beads (GE Healthcare). The elution was made in 50 mM Tris-HCl, pH 8.0 buffer supplemented with 30 mM reduced gluthatione (Sigma). The protocol used to detect the enzymatic activity is adapted from Miao and Degterev (Methods Mol. Biol. 2009, 559, 79-93). Kinase reaction was initiated mixing 5 μl of eluted RIPK1, 5 μl of 3× kinase reaction buffer (5 mM MOPS pH 7.2, 2.5 mM β-glycerophosphate, 4 mM MgCl2, 2.5 mM MnCl2, 1 mM EGTA, 0.4 mM EDTA, 50 μg/ml BSA, 0.05 mM DTT), 2 μl H2O and 3 μl of the tested molecule. The mixture was kept on ice for 10 minutes. During the incubation, the ATP solution was prepared by mixing 5 μl of 3× kinase reaction buffer, 4 μl H2O, 6 μl cold ATP at 150 μM and 2 μCi of [γ-^32P] ATP. Add the ATP solution and the tested inhibitor to the kinase and incubate for 30 minutes at 30° C. To stop the enzymatic reaction, 5 μl of loading buffer were added and solution was heated for 3 minutes at 95° C. 25 μl of each reaction were loaded per well in pre-cast NuPage 12% Bis-Tris gel (Life Technology). Autophosphorylated RIPK1 band was visualized on radiographic film after 6 h exposition at −80° C.

Structures are written as SMILES.

As usually defined, the EC50 is the concentration needed to bring the measured effect to its halfway point. Turning to `Oc1ccc(-c2cc3cccnc3[nH]2)cc1` [compound 2, 4-(1H-pyrrolo[2,3-b]pyridin-2-yl)phenol], the EC50 in the data set on L929 cells (Mus musculus, 1 h pretreatment, cell death after 24 h) was found to be 3 µM; with L929AsFas cells (1 h pretreatment, cell death after 24 h) it was 2.4 µM; in the data set on U937 cells (Homo sapiens, U-937, 1 h pretreatment, cell death after 24 h) it was 20 µM. Besides, the “% Rescue” value in the data set with L929 cells (rescue from cell death, 24 h) is 80%; in the data set with L929AsFas cells (rescue from cell death, 24 h) it was 80%; in the data set on U937 cells (rescue from cell death, 24 h), 50%. Moreover, the “AST and ALT levels and protection from Con A-induced hepatitis” value was “This protection is not observed” in data set [1] (Sib 9 mg/kg intraperitoneal 1 hour before 12 mg/kg Con A for 10 h); “has a tendency to decrease AST and ALT levels and to protect mice from Con A-induced hepatitis” in data set [1] (Sib 3 or 6 mg/kg intraperitoneal 1 hour before 12 mg/kg Con A for 10 h). In data set [1] (dose of 3 mg/kg), the “serum aminotransaminases (ALT, AST) levels induced by ConA (figure legend)” value is given as “decreases these serum transaminase levels”. In addition, in data set [2], the “induction of EROD activity” value is “do not induce EROD activity”. Moreover, the “inhibition of RIPK1 autophosphorylation” value in data set [3] is given as “dose-dependent inhibition”; in data set [3] (listed as Sib), “inhibit the RIPK1 autophosphorylation”.
